Patent US20080293712A1, “Benzo[C][2,7]Naphtyridine Derivatives, Methods of Making Thereof and Methods of Use Thereof” (WYETH, priority 2007, published 2008)

Assays:
Type in all cases: biochemical
PKA = PKA (Homo sapiens, UniProt P17612); test: PKA kinase inhibition, Z'-LYTE FRET assay
[1] = target: T1, human PKCθ full length enzyme (Homo sapiens, UniProt Q04759); test: PKCθ kinase inhibition, IMAP fluorescence polarization assay; details: 6 μM ATP
T1 construct: human PKCθ full length enzyme; purchased Panvera, Madison, Wis., now Invitrogen, Carlsbad, Calif; P2996
Text: The ability of illustrative Benzo[c][2,7]naphthyridine Derivatives to inhibit PKCθ can be determined using an IMAP Assay (Molecular Devices Corporation, Sunnyvale, Calif.). The materials used include the following: human PKCθ full length enzyme (Panvera, Madison, Wis., now Invitrogen, Carlsbad, Calif., Cat. No. P2996); substrate peptide: 5FAM-[…]-OH (Molecular Devices, Cat. No. RP7032); ATP (Sigma-Aldrich, St. Louis, Mo., Sigma Cat. No. A2383); DTT (e.g., Pierce, now Fisher Scientific, Waltham, Mass., Pierce Cat. No. 20291); 5× kinase reaction buffer (Molecular Devices, Cat. No. R7209); 5× binding buffer A (Molecular Devices, Cat. No. R7282), 5× binding buffer B (Molecular Devices, Cat. No. R7209); IMAP Beads (Molecular Devices, Cat. No. R7284); and 384-well plates (Corning Costar, Acton, Mass., Cat. No. 3710). The reaction buffer is prepared by diluting the 5× stock reaction buffer and adding DTT to obtain a concentration of 3.0 mM. The binding buffer is prepared by diluting the 5× binding buffer A. A master mix solution is prepared using a 90% dilution of the reaction buffer containing 2×ATP (12 μM) and 2× peptide (200 nM). […] The final concentration of compound is 2× and 10% DMSO. DMSO is added to the rest of the master mix to increase the concentration to 10%. 10 μl of the master mix containing 10% DMSO is added to the rest of the wells on the plate except the 2nd column. 20 μl is transferred from the first column to the 2nd column. The compounds are serially diluted in 2:1 ratio starting from the 2nd column. A 2× (2 nM) PKCθ solution is made in the reaction buffer. 10 μl of the PKCθ solution is added to every well to achieve these final concentrations: PKCθ—1 nM; ATP—6 μM; peptide—100 nM; DMSO—5%. Samples are incubated for 25 minutes at room temperature. The binding reagent is prepared by diluting the beads in 1× binding buffer to 800:1. 50 μl of the binding reagent is added to every well and incubated for 20 minutes. Fluorescence polarization is measured using EnVision™ 2100 multilabel reader (PerkinElmer Life Sciences, Wellesley, Mass.). Wells with no ATPs and wells with no enzymes are used as controls.

Akt1 = Akt1 (Homo sapiens, UniProt P31749); test: Akt1 kinase inhibition, Z'-LYTE FRET assay; details: 100 μM ATP
Procedure, shortened: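 Z'-LYTE FRET format: kinase phosphorylates fluorophore-labelled peptide with ATP, then protease cleaves only non-phosphorylated peptide. Phosphorylation calculated from donor (460 nm)/acceptor (535 nm) emission ratio after 400 nm excitation; IC50 values derived.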

PDK-1 = target: T2, PDK-1 (Homo sapiens, UniProt O15530); test: PDK-1 kinase inhibition ELISA assay (phosphorylation of His6-tagged SGK1 S422D by PDK-1); details: PDK-1 ELISA, Table 11; read-out: Average IC50
T2 sequence (O15530 1-556): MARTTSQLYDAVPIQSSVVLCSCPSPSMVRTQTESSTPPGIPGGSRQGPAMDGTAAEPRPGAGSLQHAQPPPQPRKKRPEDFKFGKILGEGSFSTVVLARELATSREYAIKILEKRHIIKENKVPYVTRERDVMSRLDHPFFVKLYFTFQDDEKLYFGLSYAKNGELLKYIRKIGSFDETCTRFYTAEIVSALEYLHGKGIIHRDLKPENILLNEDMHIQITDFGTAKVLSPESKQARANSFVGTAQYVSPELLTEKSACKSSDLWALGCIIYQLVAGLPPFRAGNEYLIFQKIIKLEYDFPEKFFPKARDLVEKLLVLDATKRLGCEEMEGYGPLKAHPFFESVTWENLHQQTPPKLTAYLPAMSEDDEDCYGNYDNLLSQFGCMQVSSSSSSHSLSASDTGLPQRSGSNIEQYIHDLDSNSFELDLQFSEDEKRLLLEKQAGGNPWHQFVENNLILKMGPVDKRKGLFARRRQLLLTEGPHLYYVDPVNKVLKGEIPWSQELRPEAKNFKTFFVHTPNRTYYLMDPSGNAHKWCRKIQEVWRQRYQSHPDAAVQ

S6K = S6K (Homo sapiens, UniProt P23443); test: S6K kinase inhibition, Z'-LYTE FRET assay; details: 100 μM ATP
Text: The ability of illustrative Benzo[c][2,7]naphthyridine Derivatives to inhibit PKA, Akt1, S6K in vitro can be determined using a Fluorescence Resonance Energy Transfer (FRET) assay, such as a Z′-LYTE™ Kinase Assay Platform, commercially available from Invitrogen (c.f. Rodems et al., ASSAY Drug Devel. Technol. 1:9-19 (2002) and Zhang et al., J. Biomol. Screen. 4:67-73 (1999)). Z′-Lyte™ assay is an in vitro FRET-based assay that utilizes differential sensitivity of phosphorylated and non-phosphorylated peptides to proteolytic cleavage. The peptide substrate (also available from Invitrogen for each of PKA, Akt1 and S6K) is labeled with two different fluorophores, a fluorescence donor at one end of the peptide and a fluorescence acceptor at the other end of the peptide. In the primary kinase reaction, the kinase phosphorylates the peptide substrate in the presence of ATP. In the secondary reaction, a site-specific protease recognizes and cleaves non-phosphorylated peptides, but not phosphorylated peptides. Cleavage disrupts FRET between the donor and acceptor fluorophores on the peptide, whereas uncleaved phosphorylated peptides maintain FRET. Based on a formula that uses the ratio of donor emission (at 460 nm) to acceptor emission (at […]) after excitation of the donor fluorophore at 400 nm, the extent of phosphorylation of the peptide substrates is calculated. IC50 values of illustrative Benzo[c][2,7]naphthyridine Derivatives, shown in Table 12, are calculated using LSW Data Analysis package add-in for Excel (Microsoft).

Sequence of S6K (P23443 whole entry): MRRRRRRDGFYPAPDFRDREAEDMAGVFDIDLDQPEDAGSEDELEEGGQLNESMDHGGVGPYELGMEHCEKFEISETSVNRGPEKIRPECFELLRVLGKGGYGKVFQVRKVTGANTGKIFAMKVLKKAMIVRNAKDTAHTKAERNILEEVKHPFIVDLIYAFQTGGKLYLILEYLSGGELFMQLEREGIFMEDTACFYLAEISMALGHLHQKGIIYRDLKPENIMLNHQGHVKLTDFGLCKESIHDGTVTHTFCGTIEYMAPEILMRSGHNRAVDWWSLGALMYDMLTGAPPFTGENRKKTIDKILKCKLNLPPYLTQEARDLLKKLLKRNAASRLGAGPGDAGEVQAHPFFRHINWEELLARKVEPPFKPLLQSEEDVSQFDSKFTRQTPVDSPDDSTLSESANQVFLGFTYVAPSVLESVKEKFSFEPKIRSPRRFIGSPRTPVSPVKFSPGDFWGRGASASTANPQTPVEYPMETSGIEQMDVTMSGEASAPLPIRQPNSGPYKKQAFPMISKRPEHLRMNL
Sequence of Akt1 (P31749 whole entry, species assumed): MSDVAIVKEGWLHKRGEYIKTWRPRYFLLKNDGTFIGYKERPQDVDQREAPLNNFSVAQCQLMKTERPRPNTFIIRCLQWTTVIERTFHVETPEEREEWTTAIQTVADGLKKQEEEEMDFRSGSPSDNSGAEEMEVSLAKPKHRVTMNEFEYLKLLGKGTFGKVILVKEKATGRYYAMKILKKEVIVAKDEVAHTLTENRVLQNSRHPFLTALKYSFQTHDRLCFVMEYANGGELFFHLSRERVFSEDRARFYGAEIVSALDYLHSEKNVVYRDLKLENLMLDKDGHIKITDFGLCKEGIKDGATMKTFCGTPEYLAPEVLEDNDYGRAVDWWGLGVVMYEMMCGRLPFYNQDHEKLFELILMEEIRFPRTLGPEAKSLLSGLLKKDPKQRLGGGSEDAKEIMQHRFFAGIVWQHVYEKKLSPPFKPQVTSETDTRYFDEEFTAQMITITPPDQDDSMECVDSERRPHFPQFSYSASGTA
T1 sequence (Q04759 whole entry): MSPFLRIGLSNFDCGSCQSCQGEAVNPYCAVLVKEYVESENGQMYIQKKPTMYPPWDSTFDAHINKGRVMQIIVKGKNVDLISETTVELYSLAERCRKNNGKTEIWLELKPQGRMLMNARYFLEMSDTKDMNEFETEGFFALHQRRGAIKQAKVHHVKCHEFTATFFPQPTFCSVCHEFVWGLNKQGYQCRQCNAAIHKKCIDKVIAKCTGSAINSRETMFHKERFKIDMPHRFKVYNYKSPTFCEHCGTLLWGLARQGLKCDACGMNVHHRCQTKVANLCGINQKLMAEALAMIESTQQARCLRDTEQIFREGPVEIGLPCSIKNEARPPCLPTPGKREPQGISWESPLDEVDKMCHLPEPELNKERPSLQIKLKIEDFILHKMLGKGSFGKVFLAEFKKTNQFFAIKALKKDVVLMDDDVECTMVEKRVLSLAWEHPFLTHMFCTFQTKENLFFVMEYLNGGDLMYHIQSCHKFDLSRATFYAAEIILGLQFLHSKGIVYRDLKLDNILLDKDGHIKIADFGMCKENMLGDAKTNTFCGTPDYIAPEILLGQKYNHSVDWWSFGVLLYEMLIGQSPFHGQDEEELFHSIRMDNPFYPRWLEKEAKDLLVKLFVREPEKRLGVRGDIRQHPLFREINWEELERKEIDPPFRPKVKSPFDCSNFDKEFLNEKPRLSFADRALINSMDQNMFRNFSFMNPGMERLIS

Row | Compound | IC50 (PKA; 100 μM ATP) | IC50 [1] | IC50 (Akt1) | IC50 (PDK-1) | IC50 (S6K) | IC50 (PKA; 20 μM ATP)
1 | CCOc1cc2ncc3c(N)nc(-n4ccnc4)cc3c2cc1N [Ia-28, 8-Ethoxy-2-(1H-imidazol-1-yl)benzo[c]-2,7-naphthyridine-4,9-diamine] | > 2 µM | 0.135 µM | 0.36 µM | 0.046 µM | 1.09 µM | –
2 | COc1cc2ncc3c(N)nc(-c4cncc(O[C@H]5CCNC5)c4)cc3c2cc1OC [Ib-59, 8,9-dimethoxy-2-{5-[(3S)-pyrrolidin-3-yloxy]pyridin-3-yl}benzo[c]-2,7-naphthyridin-4-amine] | > 2 µM | 0.592 µM | 0.29 µM | 0.064 µM | 1.24 µM | 2 µM
3 | COc1cc2c(cc1OCCN1CCOCC1)ncc1c(N)nc(-n3ccnc3)cc12 [Ia-13, 2-(1H-imidazol-1-yl)-9-methoxy-8-(2-morpholinoethoxy)benzo[c][2,7]naphthyridin-4-amine] | > 2 µM | 0.121 µM | 0.07 µM | 0.079 µM | 0.656 µM | > 10 µM
4 | CCSc1cc2ncc3c(N)nc(-c4cncc(OC[C@@H](N)Cc5ccccc5)c4)cc3c2cc1OC [Ia-40, 2-(5-{[(2S)-2-amino-3-phenylpropyl]oxy}pyridin-3-yl)-8-(ethylthio)-9-methoxybenzo[c]-2,7-naphthyridin-4-amine] | – | 0.525 µM | 1 µM | 0.0445 µM | – | > 20 µM
5 | COc1cc2ncc3c(N)nc(-c4cncc(O[C@@H]5CCNC5)c4)cc3c2cc1OC [Ib-58, 8,9-dimethoxy-2-{5-[(3R)-pyrrolidin-3-yloxy]pyridin-3-yl}benzo[c]-2,7-naphthyridin-4-amine] | 1.53 µM | 0.249 µM | 0.06 µM | 0.066 µM | 0.355 µM | 0.14 µM
6 | COc1cc2c(cc1OCCN1CCCC1)ncc1c(N)nc(-n3ccnc3)cc12 [Ia-12, 2-(1H-imidazol-1-yl)-9-methoxy-8-(2-pyrrolidin-1-ylethoxy)benzo[c]-2,7-naphthyridin-4-amine] | – | 0.255 µM | 0.225 µM | 0.508 µM | – | > 10 µM
7 | COc1cc2ncc3c(N)nc(-c4cncc(O)c4)cc3c2cc1OC [Ib-57, 5-(4-Amino-8,9-dimethoxybenzo[c]-2,7-naphthyridin-2-yl)pyridin-3-ol] | > 2 µM | 0.332 µM | 0.3 µM | 0.057 µM | > 2 µM | > 20 µM

Molecules with a lower IC50 [1], results first:

Row | IC50 (PKA; 100 μM ATP) | IC50 [1] | IC50 (Akt1) | IC50 (PDK-1) | IC50 (S6K) | IC50 (PKA; 20 μM ATP) | Compound
8 | 0.39 µM | 0.017 µM | 0.001 µM | 0.012 µM | 0.034 µM | 0.038 µM | COCCOc1cc2ncc3c(N)nc(-c4cncc(OC[C@@H](N)Cc5ccccc5)c4)cc3c2cc1OC [Ia-11, 2-(5-{[(2S)-2-amino-3-phenylpropyl]oxy}pyridin-3-yl)-9-methoxy-8-(2-methoxyethoxy)benzo[c]-2,7-naphthyridin-4-amine]
9 | 0.146 to 0.497 µM | 0.029 µM | < 0.16 µM | 0.01 µM | 0.098 to 0.14 µM | 0.023 µM | COc1cc2ncc3c(N)nc(-c4cncc(OC[C@@H](N)Cc5ccccc5)c4)cc3c2cc1OC [Ib-62, 2-(5-{[(2S)-2-amino-3-phenylpropyl]oxy}pyridin-3-yl)-8,9-dimethoxybenzo[c]-2,7-naphthyridin-4-amine]
10 | > 2 µM | 0.116 µM | 0.2 µM | – | 1.39 µM | > 20 µM | COCCOc1cc2ncc3c(N)nc(-n4ccnc4)cc3c2cc1OC [Ia-48, 2-(1H-imidazol-1-yl)-9-methoxy-8-(2-methoxyethoxy)benzo[c]-2,7-naphthyridin-4-amine]
11 | 0.259 µM | 0.004 µM | 0.003 µM | – | 0.088 µM | < 0.16 µM | COc1cc2ncc3c(N)nc(-c4cncc(OC[C@H](N)Cc5ccccc5)c4)cc3c2cc1OC [Ib-56, 2-(5-{[(2R)-2-amino-3-phenylpropyl]oxy}pyridin-3-yl)-8,9-dimethoxybenzo[c]-2,7-naphthyridin-4-amine]
12 | 1.32 µM | 0.003 µM | 0.018 µM | 0.015 µM | 0.254 µM | < 0.08 µM | COc1cc2ncc3c(N)nc(-c4cncc(OC[C@H](N)Cc5c[nH]c6ccccc56)c4)cc3c2cc1OC [Ib-55, 2-(5-{[(2R)-2-amino-3-(1H-indol-3-yl)propyl]oxy}pyridin-3-yl)-8,9-dimethoxybenzo[c]-2,7-naphthyridin-4-amine]
